{
  "source": "patent EP2377861B1",
  "about": "“Water-soluble bis-triazinyl-pyridines, bipyridines and terpyridines, synthesis and use of same” (Karlsruher Institut für Technologie, priority 2010, dated 2011)",
  "key": {"[1]": {"test": "Extraction with D2EHPA from HNO3, complexing agent in aqueous phase, distribution ratio by gamma spectrometry", "conditions": "for DAm(III) / DEu(III): 10 mmol/L SO3-Ph-BTP in aqueous phase, 0.1 mol/L D2EHPA in Kerosin; for SFEu(III)/Am(III): separation factor DEu(III)/DAm(III), D2EHPA", "excerpt": "(§1) D2EHPA bestimmt. Aus allen Versuchen wurden die Verteilungsverhältnisse (Verhältnis der organischen zur wässrigen Konzentration) von Am(III) und Eu(III) mittels Gamma-Spektrometrie bestimmt. Die Berechnung der Verteilungsverhältnisse DM ergibt sich aus den Zählraten des Gammazählers, welcher die radioaktiven ^241Am (III) - und ^152Eu(III) - Isotope in volumengleichen Proben der wässrigen bzw. der organischen Phase erfasst gem. der Gleichung DM=[M]org/[M]aq, wobei die Konzentration des Metalls M aus [M]=Zählrate/Volumen berechnet wird.\nEs wurden ^241Am(III) und ^152Eu(III) (je ca. 1 kBq/mL) aus 0.045 / 0.09 / 0.18 / 0.44 mol/L HNO3 in eine organische Phase bestehend aus (0.1 mol/L D2EHPA in Kerosin) extrahiert."}, "[2]": {"test": "Extraction with TODGA from HNO3, complexing agent in aqueous phase, distribution ratio by gamma spectrometry", "conditions": "for DEu(III) / DAm(III): 0.2 mol/L TODGA + 5 % vol. 1-Octanol in Kerosin; for SFEu(III)/Am(III): separation factor DEu(III)/DAm(III)", "excerpt": "as §1\nEs wurden […] und ^152Eu(III) (je ca. 1 kBq/mL) aus 0.09 / 0.18 / 0.44 / 0.88 / 1.8 mol/L HNO3 in eine organische Phase bestehend aus (0.2 mol/L TODGA + 5 % vol. 1-Octanol in Kerosin) extrahiert.\nEs wurden ^241Am(III) und ^152Eu(III) (je ca. 1 kBq/mL) aus 0.5 mol/L HNO3 in eine organische Phase bestehend aus (0.2 mol/L TODGA + 5 % vol. 1-Octanol in Kerosin) extrahiert. Die wässrige Phase enthielt entweder 0 mmol/L oder 10 mmol/L SO3-Ph-BTBP."}, "[3]": {"test": "Back-extraction from loaded TODGA organic phase (simulated PUREX raffinate) into aqueous complexing agent solution", "conditions": "after back-extraction into 10 mmol/L SO3-Ph-BTP in water", "excerpt": "as §1\nEinem inaktiven Simulat eines PUREX-Raffinats wurden ^241Am(III) und ^I52Eu(III) (je ca. 1 kBq/mL) zugegeben. Es wurde in eine organische Phase bestehend aus (0.2 mol/L TODGA + 5 % vol. 1-Octanol in Kerosin) extrahiert."}, "[4]": {"test": "Solubility in water", "format": "physicochemical"}, "[5]": {"conditions": "loaded 0.2 mol/L TODGA + 5 % vol. 1-Octanol in Kerosin"}, "[6]": {"conditions": "10 mmol/L SO3-Ph-BTBP in aqueous phase, 0.5 mol/L HNO3"}},
  "data": [
    {"substance": "2,6-Bis(5,6-di(sulfophenyl)-1,2,4-triazin-3-yl)pyridine [SO3-Ph-BTP]", "values": [
      {"measurement": "DAm(III)", "setting": "[1]; 0.045 mol/L HNO3", "result": "1.10^-3"},
      {"measurement": "DEu(III)", "setting": "[1]; 0.045 mol/L HNO3", "result": 5.3},
      {"measurement": "DAm(III)", "setting": "[1]; 0.09 mol/L HNO3", "result": "4.10^-4"},
      {"measurement": "DEu(III)", "setting": "[1]; 0.09 mol/L HNO3", "result": 1.4},
      {"measurement": "DAm(III)", "setting": "[1]; 0.18 mol/L HNO3", "result": "5.10^-5"},
      {"measurement": "DEu(III)", "setting": "[1]; 0.18 mol/L HNO3", "result": 0.37},
      {"measurement": "DAm(III)", "setting": "[1]; 0.44 mol/L HNO3", "result": "< d.l."},
      {"measurement": "DEu(III)", "setting": "[1]; 0.44 mol/L HNO3", "result": 0.06},
      {"measurement": "Trennfaktor SFEu(III)/Am(III)", "setting": "[1]; 10 mmol/L SO3-Ph-BTP, D2EHPA in Kerosin", "result": "> 3000"},
      {"measurement": "SFEu(III)/Am(III)", "setting": "[1]; 10 mmol/L SO3-Ph-BTP, 0.045 mol/L HNO3", "result": 5200},
      {"measurement": "SFEu(III)/Am(III)", "setting": "[1]; 10 mmol/L SO3-Ph-BTP, 0.09 mol/L HNO3", "result": 3400},
      {"measurement": "SFEu(III)/Am(III)", "setting": "[1]; 10 mmol/L SO3-Ph-BTP, 0.18 mol/L HNO3", "result": 7000},
      {"measurement": "DEu(III)", "setting": "[2]; 10 mmol/L SO3-Ph-BTP in aqueous phase, 0,09 mol/L HNO3", "result": 1.2},
      {"measurement": "DEu(III)", "setting": "[2]; 10 mmol/L SO3-Ph-BTP in aqueous phase, 0,18 mol/L HNO3", "result": 11.9},
      {"measurement": "DEu(III)", "setting": "[2]; 10 mmol/L SO3-Ph-BTP in aqueous phase, 0,44 mol/L HNO3", "result": 180},
      {"measurement": "DEu(III)", "setting": "[2]; 10 mmol/L SO3-Ph-BTP in aqueous phase, 0,88 mol/L HNO3", "result": "> 10^3"},
      {"measurement": "DEu(III)", "setting": "[2]; 10 mmol/L SO3-Ph-BTP in aqueous phase, 1,8 mol/L HNO3", "result": "> 10^3"},
      {"measurement": "Trennfaktor SFEu(III)/Am(III)", "setting": "[2]; 10 mmol/L SO3-Ph-BTP, ca. 0.1-0.5 mol/L HNO3, TODGA", "result": "500-1000"},
      {"measurement": "DAm(III)", "setting": "[2]; 10 mmol/L complexing agent in aqueous phase, 0,09 mol/L HNO3", "result": "1.1·10^-3"},
      {"measurement": "DAm(III)", "setting": "[2]; 10 mmol/L complexing agent in aqueous phase, 0,18 mol/L HNO3", "result": 0.014},
      {"measurement": "DAm(III)", "setting": "[2]; 10 mmol/L complexing agent in aqueous phase, 0,44 mol/L HNO3", "result": 0.35},
      {"measurement": "DAm(III)", "setting": "[2]; 10 mmol/L complexing agent in aqueous phase, 0,88 mol/L HNO3", "result": 4.5},
      {"measurement": "DAm(III)", "setting": "[2]; 10 mmol/L complexing agent in aqueous phase, 1,8 mol/L HNO3", "result": 90},
      {"measurement": "SFEu(III)/Am(III)", "setting": "[2]; 10 mmol/L complexing agent, 0,09 mol/L HNO3, TODGA", "result": 1100},
      {"measurement": "SFEu(III)/Am(III)", "setting": "[2]; 10 mmol/L complexing agent, 0,18 mol/L HNO3, TODGA", "result": 850},
      {"measurement": "SFEu(III)/Am(III)", "setting": "[2]; 10 mmol/L complexing agent, 0,44 mol/L HNO3, TODGA", "result": 510},
      {"measurement": "SFEu(III)/Am(III)", "setting": "[2]; 10 mmol/L complexing agent, 0,88 mol/L HNO3, TODGA", "result": "> 220"},
      {"measurement": "SFEu(III)/Am(III)", "setting": "[2]; 10 mmol/L complexing agent, 1,8 mol/L HNO3, TODGA", "result": "> 11"},
      {"measurement": "DAm(III)", "setting": "[3]; [5]", "result": 0.059},
      {"measurement": "DEu(III)", "setting": "[3]; [5]", "result": 49},
      {"measurement": "Trennfaktor SFEu(III)/Am(III)", "setting": "[3]; loaded TODGA phase", "result": 830}
    ]},
    {"substance": "6,6'-Bis(5, 6-di(sulfophenyl)-1, 2, 4-triazin-3-yl)-2,2'-bipyridine [SO3-Ph-BTBP]", "values": [
      {"measurement": "DAm(III)", "setting": "[2]; [6]", "result": 0.33},
      {"measurement": "DEu(III)", "setting": "[2]; [6]", "result": 150},
      {"measurement": "SFEu(III)/Am(III)", "setting": "[2]; 10 mmol/L SO3-Ph-BTBP, 0.5 mol/L HNO3, TODGA", "result": 450},
      {"measurement": "Löslichkeit in Wasser", "setting": "[4]", "result": "> 0.1", "unit": "mol/L"}
    ]}
  ]
}
